Measured values taken from BindingDB's records for PubMed 37116763 (n/a, 2023).

Molecular target: T1, Nuclear factor erythroid 2-related factor 2 (Homo sapiens, UniProt Q16236)
T1 sequence (Q16236 whole entry): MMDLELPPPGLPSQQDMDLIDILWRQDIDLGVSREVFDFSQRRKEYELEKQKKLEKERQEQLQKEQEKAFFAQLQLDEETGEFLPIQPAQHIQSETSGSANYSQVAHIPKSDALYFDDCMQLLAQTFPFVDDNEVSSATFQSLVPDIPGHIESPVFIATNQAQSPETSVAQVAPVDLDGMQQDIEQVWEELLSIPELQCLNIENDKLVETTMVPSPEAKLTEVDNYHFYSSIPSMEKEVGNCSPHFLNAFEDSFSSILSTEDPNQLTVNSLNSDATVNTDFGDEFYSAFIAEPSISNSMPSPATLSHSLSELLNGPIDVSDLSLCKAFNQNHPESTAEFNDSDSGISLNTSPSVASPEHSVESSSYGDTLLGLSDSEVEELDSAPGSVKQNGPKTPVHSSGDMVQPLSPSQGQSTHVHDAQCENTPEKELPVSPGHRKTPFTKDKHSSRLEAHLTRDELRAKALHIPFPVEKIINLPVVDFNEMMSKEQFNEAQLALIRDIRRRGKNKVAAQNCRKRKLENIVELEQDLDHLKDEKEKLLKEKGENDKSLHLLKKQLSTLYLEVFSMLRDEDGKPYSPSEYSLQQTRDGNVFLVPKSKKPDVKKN
Assay: Activation of Nrf2 in human IMR-32-ARE-Luc cells by Bright-Glo luciferase assay

Row | EC50 [µM] | Structure (SMILES)
1 | > 20 | CC(C)CN[C@H]1CS(=O)(=O)C[C@@H]1C(=O)Nc1ccc(Cl)c(Cl)c1
2 | > 20 | O=C(O)CCCN[C@H]1CS(=O)(=O)C[C@@H]1S(=O)(=O)c1ccc(Cl)c(Cl)c1
3 | > 20 | O=C(O)CCCCCN[C@H]1CS(=O)(=O)C[C@@H]1S(=O)(=O)c1ccc(Cl)c(Cl)c1
